Data on 4 compounds can be found in paper PMC8225045, “Chemical Synthesis and Structure-Activity Relationship Study Yield Desotamide a Analogues with Improved Antibacterial Activity” (Marine Drugs, 2021).

Values after ≈ are worked out from the molar mass of the structure shown. Non-standard residues stand in square brackets, D forms with d. Residues, ends and D or L forms follow the SMILES beside them.

One test concerns Gram-negative pathogens. The following applies: weak activity; summary of Table 1. How it is done: (§1) All the synthesized cyclopeptides (7–19) and the desotamide A (1) isolated from S. scopuliridis SCSIO ZJ46 were evaluated for antibacterial activities against a series of Gram-positive pathogens including […] Staphylococcus aureus ATCC29213, Bacillus subtilis BS01, Micrococcus luteus ML01, Enterococcus faecalis ATCC29212; 3 drug-resistant poultry pathogens Staphylococcus simulans LJH13, Enterococcus gallinarum LJH11, Staphylococcus haemolyticus LJH9; 4 clinical methicillin-resistant Staphylococcus aureus (MRSA) shhs-E1, MRSA 16339, MRSA 745524, MRSA 16162. Their antibacterial activities against the […] pathogens Escherichia coli ATCC 13,124 and clinical drug-resistant Klebsiella pneumonia 15580 were also assayed.
(§2) Ampicillin, vancomycin and polymyxin were used as control. The maximum test concentrations for all the compounds were 128 μg/mL.

The subject of the next test is Gram-positive pathogens. The following applies: for fold increase of antibacterial activities compared to desotamide A (1): entire test panel of Gram-positive bacteria; for Gram positive antibacterial activity for desotamides (in words): summary, Figure 2. As for the experimental part: as §1, §2
In test [1] the test system is Klebsiella pneumoniae 15580. As to conditions: 15580. As for the experimental part:
as §1, §2

For a further test, the system named is Micrococcus luteus ML01. The test is described as follows: microbe, parasite or virus in culture. As to conditions: ML01. As for the experimental part:
as §1, §2

A further test concerns MRSA 16339. Briefly: microbe, parasite or virus in culture. As to conditions: 16339. How it is done:
as §1, §2

In the next test the test system is Bacillus subtilis BS01. The test is described as follows: microbe, parasite or virus in culture. The following applies: BS01. How it is done: as §1, §2
For test [2], the system named is Staphylococcus simulans LJH13. The test is described as follows: microbe, parasite or virus in culture. How it is done:
as §1, §2

The test system of the next test is MRSA 16162. Briefly: microbe, parasite or virus in culture. The following applies: 16162. As for the experimental part:
as §1, §2

The next test concerns MRSA 745524. The test is described as follows: microbe, parasite or virus in culture. The following applies: 745524. As for the experimental part:
as §1, §2

Test [3] relates to Enterococcus gallinarum LJH11. The test is described as follows: microbe, parasite or virus in culture. As for the experimental part:
as §1, §2

In test [4] the test system is Staphylococcus aureus ATCC 29213. Briefly: microbe, parasite or virus in culture. The following applies: ATCC 29213. As for the experimental part:
as §1, §2

In test [5] the test system is Staphylococcus haemolyticus LJH9. The test is described as follows: microbe, parasite or virus in culture. As for the experimental part:
as §1, §2

Test [6] concerns methicillin-resistant Staphylococcus aureus (MRSA) shhsE1. Briefly: microbe, parasite or virus in culture. As to conditions: methicillin-resistant shhsE1. As for the experimental part: as §1, §2
Test [7] deals with Enterococcus faecalis ATCC 29212. Briefly: microbe, parasite or virus in culture. The following applies: ATCC 29212. How it is done: as §1, §2
The conditions of test [8]: no notable antibacterial activities; cited from earlier work. An excerpt: Comparison of the naturally produced desotamides, a preliminary SAR of this class of compounds has been defined.
A further test has as its system E. coli ATCC 13124. As to conditions: ATCC 13124. How it is done:
as §1, §2

The test system of a further test is Staphylococcus aureus. Also on record: method as in PMID 25229313. As to conditions: previous report; cited from earlier work.

With `CC[C@H](C)[C@@H]1NC(=O)[C@H](CC(N)=O)NC(=O)[C@@H](CCCNC(=N)N)NC(=O)[C@H](Cc2c[nH]c3ccccc23)NC(=O)[C@H](CC(C)C)NC(=O)[C@@H](CC(C)C)NC1=O` [Compound 15, Desotamide A6] (cyclo(I[dL]LW[dR]N)), in the test with Gram-negative pathogens, the “MIC against the Gram-negative pathogens tested (summary)” value lay in the range of 64 to 128 µg/mL. Besides, in the test on Gram-positive pathogens, the “MIC values against Gram-positive pathogens (summary over the panel)” value was 8 to 32 µg/mL. Further, the “fold increase of antibacterial activities compared to desotamide A (1)” value in the test with Gram-positive pathogens is listed as 2–4 fold. Besides, the “Gram positive antibacterial activity for desotamides (in words)” value in the test on Gram-positive pathogens is recorded as 2–4-Fold more active than 1. In addition, the MIC in [1] is above 128 µg/mL; against Micrococcus luteus ML01, 8 µg/mL (≈ 10.1 µM); in the test on MRSA 16339, 16 µg/mL (≈ 20.1 µM); in the test on Bacillus subtilis BS01, 8 µg/mL (≈ 10.1 µM); in [2], 8 µg/mL (≈ 10.1 µM); with MRSA 16162, 16 µg/mL (≈ 20.1 µM). Also, the MIC in the test on MRSA 745524 came to 8 µg/mL (≈ 10.1 µM); in test [3], 128 µg/mL (≈ 161 µM); in test [4], 16 µg/mL (≈ 20.1 µM); in [5], 32 µg/mL (≈ 40.2 µM); in test [6], 8 µg/mL (≈ 10.1 µM); in [7], 32 µg/mL (≈ 40.2 µM).
For desotamide G [Compound 5], in test [8], the “MIC, antibacterial activities” value was above 113 µg/mL.
Take `CC[C@H](C)[C@@H]1NC(=O)[C@H](CC(N)=O)NC(=O)[C@@H](CCCCN)NC(=O)[C@H](Cc2c[nH]c3ccccc23)NC(=O)[C@H](CC(C)C)NC(=O)[C@@H](CC(C)C)NC1=O` [Compound 13, Desotamide A4] (cyclo(I[dL]LW[dK]N)): the “MIC against the Gram-negative pathogens tested (summary)” value in the test with Gram-negative pathogens was in the range of 64 to 128 µg/mL. The MIC with E. coli ATCC 13124 was 64 µg/mL (≈ 83.3 µM); in test [1], above 128 µg/mL; in the test on Micrococcus luteus ML01, 8 µg/mL (≈ 10.4 µM); with MRSA 16339 it was 16 µg/mL (≈ 20.8 µM); against Bacillus subtilis BS01, 8 µg/mL (≈ 10.4 µM); in [2], 8 µg/mL (≈ 10.4 µM). The MIC with MRSA 16162 was determined as 16 µg/mL (≈ 20.8 µM); with MRSA 745524, 16 µg/mL (≈ 20.8 µM); in test [3], 64 µg/mL (≈ 83.3 µM); in test [4], 16 µg/mL (≈ 20.8 µM); in test [5], 32 µg/mL (≈ 41.7 µM); in test [6], 16 µg/mL (≈ 20.8 µM). In addition, the MIC in [7] was determined as 32 µg/mL (≈ 41.7 µM). Moreover, the “MIC values against Gram-positive pathogens (summary over the panel)” value against Gram-positive pathogens was in the range of 8 to 32 µg/mL. In the test on Gram-positive pathogens, the “fold increase of antibacterial activities compared to desotamide A (1)” value is 2–4 fold. Further, in the test with Gram-positive pathogens, the “Gram positive antibacterial activity for desotamides (in words)” value is listed as 2–4-Fold more active than 1.
Consider wollamide A [Compound 6], for which the “antibacterial activity against Staphylococcus aureus (in words)” value in the test on Staphylococcus aureus is listed as “no antibacterial”.
